# Laboratory results reported in ChEMBL document CHEMBL3885861, “Open TG-GATES”.
# Species: Rattus norvegicus
# Test: Open TG-GATES - Regimen: Single
# Type: toxicity, organism-based, Sprague-Dawley
# Set-up: regimen Single, gender Male, age 6 weeks
# Conditions: in vivo, po, route gavage; for APTT / Bas / Eos / Fbg / Hb / Ht / Lym / MCH / MCHC / MCV / Mono / Neu / PT / Plat / RBC / Ret / WBC: tissue Blood; for KIDNEY_L / KIDNEY_R / KIDNEY_TOTAL: tissue Kidney; for LIVER: tissue Liver; for ALP / ALT / AST / CRE / DBIL / GLC / IP / K / LDH / Na / PL / RALB / TBIL / TC / TP / gamma-GTP: tissue Plasma
# [1] = 300 mg/kg, 3 h, dose level Middle
# [2] = 300 mg/kg, 6 h, dose level Middle
# [3] = 300 mg/kg, 9 h, dose level Middle
# [4] = 300 mg/kg, 24 h, dose level Middle
# [5] = 1000 mg/kg, 3 h, dose level High
# [6] = 1000 mg/kg, 6 h, dose level High
# [7] = 1000 mg/kg, 9 h, dose level High
# [8] = 1000 mg/kg, 24 h, dose level High
compound,measurement,setting,value
Clc1ccccc1CN1CCc2sccc2C1 [TICLOPIDINE],TERMINAL_BW,[1],211.8 g
same,APTT,[1],19.5 s
same,Bas,[1],0%
same,Eos,[1],1%
same,Fbg,[1],220.8 mg/dL
same,Hb,[1],13.1 g/dL
same,Ht,[1],37.1%
same,Lym,[1],73.4%
same,MCH,[1],21.8 pg
same,MCHC,[1],35.3%
same,MCV,[1],61.6 fL
same,Mono,[1],2.8%
same,Neu,[1],21.6%
same,PT,[1],12.2 s
same,Plat,[1],124.1 x10_4/uL
same,RBC,[1],602.2 x10_4/ul
same,Ret,[1],8.4%
same,WBC,[1],73.9 x10_2/uL
same,KIDNEY_L,[1],0.9 g
same,KIDNEY_R,[1],1 g
same,KIDNEY_TOTAL,[1],1.9 g
same,LIVER,[1],9 g
same,ALP,[1],999 IU/L
same,ALT,[1],36.2 IU/L
same,AST,[1],74 IU/L
same,CRE,[1],0.4 mg/dL
same,DBIL,[1],0.078 mg/dL
same,GLC,[1],194.2 mg/dL
same,IP,[1],10.5 mg/dL
same,K,[1],3.7 meq/L
same,LDH,[1],161.4 IU/L
same,Na,[1],141 meq/L
same,PL,[1],129.2 mg/dL
same,RALB,[1],3.3 g/dL
same,TBIL,[1],0.1 mg/dL
same,TC,[1],72.6 mg/dL
same,TP,[1],5.4 g/dL
same,gamma-GTP,[1],0.8 IU/L
same,TERMINAL_BW,[2],209.7 g
same,APTT,[2],18.1 s
same,Bas,[2],0.2%
same,Eos,[2],0.8%
same,Fbg,[2],226.8 mg/dL
same,Hb,[2],13.5 g/dL
same,Ht,[2],39.1%
same,Lym,[2],77%
same,MCH,[2],21.1 pg
same,MCHC,[2],34.5%
same,MCV,[2],61.3 fL
same,Mono,[2],2.4%
same,Neu,[2],18.4%
same,PT,[2],12.1 s
same,Plat,[2],131 x10_4/uL
same,RBC,[2],637.6 x10_4/ul
same,Ret,[2],7.8%
same,WBC,[2],76.9 x10_2/uL
same,KIDNEY_L,[2],1 g
same,KIDNEY_R,[2],1 g
same,KIDNEY_TOTAL,[2],1.9 g
same,LIVER,[2],9.1 g
same,ALP,[2],909.6 IU/L
same,ALT,[2],34 IU/L
same,AST,[2],74.6 IU/L
same,CRE,[2],0.4 mg/dL
same,DBIL,[2],0.078 mg/dL
same,GLC,[2],192 mg/dL
same,IP,[2],10 mg/dL
same,K,[2],3.9 meq/L
same,LDH,[2],213 IU/L
same,Na,[2],141 meq/L
same,PL,[2],134 mg/dL
same,RALB,[2],3.4 g/dL
same,TBIL,[2],0.1 mg/dL
same,TC,[2],76.2 mg/dL
same,TP,[2],5.5 g/dL
same,gamma-GTP,[2],1.2 IU/L
same,TERMINAL_BW,[3],208.6 g
same,APTT,[3],18.8 s
same,Bas,[3],0.2%
same,Eos,[3],1%
same,Fbg,[3],226.8 mg/dL
same,Hb,[3],13.3 g/dL
same,Ht,[3],37.6%
same,Lym,[3],76%
same,MCH,[3],21.4 pg
same,MCHC,[3],35.3%
same,MCV,[3],60.7 fL
same,Mono,[3],2%
same,Neu,[3],20.2%
same,PT,[3],12.7 s
same,Plat,[3],132.7 x10_4/uL
same,RBC,[3],621.4 x10_4/ul
same,Ret,[3],7.2%
same,WBC,[3],64 x10_2/uL
same,KIDNEY_L,[3],0.9 g
same,KIDNEY_R,[3],1 g
same,KIDNEY_TOTAL,[3],1.9 g
same,LIVER,[3],8.3 g
same,ALP,[3],859.4 IU/L
same,ALT,[3],31.2 IU/L
same,AST,[3],65.4 IU/L
same,CRE,[3],0.4 mg/dL
same,DBIL,[3],0.072 mg/dL
same,GLC,[3],197 mg/dL
same,IP,[3],9.8 mg/dL
same,K,[3],3.9 meq/L
same,LDH,[3],129.6 IU/L
same,Na,[3],142 meq/L
same,PL,[3],129 mg/dL
same,RALB,[3],3.3 g/dL
same,TBIL,[3],0.1 mg/dL
same,TC,[3],69.8 mg/dL
same,TP,[3],5.5 g/dL
same,gamma-GTP,[3],1.2 IU/L
same,TERMINAL_BW,[4],212.9 g
same,APTT,[4],19.8 s
same,Bas,[4],0.4%
same,Eos,[4],1%
same,Fbg,[4],228.2 mg/dL
same,Hb,[4],14.1 g/dL
same,Ht,[4],39.5%
same,Lym,[4],80.8%
same,MCH,[4],22.1 pg
same,MCHC,[4],35.6%
same,MCV,[4],62.2 fL
same,Mono,[4],2.4%
same,Neu,[4],14.6%
same,PT,[4],12.1 s
same,Plat,[4],128.1 x10_4/uL
same,RBC,[4],635.4 x10_4/ul
same,Ret,[4],6.1%
same,WBC,[4],76.1 x10_2/uL
same,KIDNEY_L,[4],1 g
same,KIDNEY_R,[4],1 g
same,KIDNEY_TOTAL,[4],2 g
same,LIVER,[4],9.5 g
same,ALP,[4],1118.8 IU/L
same,ALT,[4],35.2 IU/L
same,AST,[4],66.6 IU/L
same,CRE,[4],0.4 mg/dL
same,DBIL,[4],0.078 mg/dL
same,GLC,[4],182.2 mg/dL
same,IP,[4],8.7 mg/dL
same,K,[4],4 meq/L
same,LDH,[4],120 IU/L
same,Na,[4],142 meq/L
same,PL,[4],146.6 mg/dL
same,RALB,[4],3.5 g/dL
same,TBIL,[4],0.1 mg/dL
same,TC,[4],83.4 mg/dL
same,TP,[4],5.6 g/dL
same,gamma-GTP,[4],1 IU/L
same,TERMINAL_BW,[5],212.3 g
same,APTT,[5],17.9 s
same,Bas,[5],0.2%
same,Eos,[5],1%
same,Fbg,[5],220.2 mg/dL
same,Hb,[5],13 g/dL
same,Ht,[5],36.9%
same,Lym,[5],73.2%
same,MCH,[5],21.4 pg
same,MCHC,[5],35.3%
same,MCV,[5],60.7 fL
same,Mono,[5],2.8%
same,Neu,[5],22.4%
same,PT,[5],11.8 s
same,Plat,[5],128.4 x10_4/uL
same,RBC,[5],609.4 x10_4/ul
same,Ret,[5],8.6%
same,WBC,[5],61.1 x10_2/uL
same,KIDNEY_L,[5],0.9 g
same,KIDNEY_R,[5],0.9 g
same,KIDNEY_TOTAL,[5],1.9 g
same,LIVER,[5],9 g
same,ALP,[5],991.8 IU/L
same,ALT,[5],36 IU/L
same,AST,[5],71.4 IU/L
same,CRE,[5],0.4 mg/dL
same,DBIL,[5],0.076 mg/dL
same,GLC,[5],196.4 mg/dL
same,IP,[5],10.7 mg/dL
same,K,[5],3.8 meq/L
same,LDH,[5],147.4 IU/L
same,Na,[5],140.4 meq/L
same,PL,[5],122 mg/dL
same,RALB,[5],3.3 g/dL
same,TBIL,[5],0.1 mg/dL
same,TC,[5],69.8 mg/dL
same,TP,[5],5.5 g/dL
same,gamma-GTP,[5],0.8 IU/L
same,TERMINAL_BW,[6],211.9 g
same,APTT,[6],19.4 s
same,Bas,[6],0%
same,Eos,[6],1%
same,Fbg,[6],230.6 mg/dL
same,Hb,[6],13.5 g/dL
same,Ht,[6],38.4%
same,Lym,[6],71.8%
same,MCH,[6],21.6 pg
same,MCHC,[6],35.1%
same,MCV,[6],61.4 fL
same,Mono,[6],2%
same,Neu,[6],24.6%
same,PT,[6],12.2 s
same,Plat,[6],118.7 x10_4/uL
same,RBC,[6],625.2 x10_4/ul
same,Ret,[6],8.6%
same,WBC,[6],69.6 x10_2/uL
same,KIDNEY_L,[6],0.9 g
same,KIDNEY_R,[6],0.9 g
same,KIDNEY_TOTAL,[6],1.8 g
same,LIVER,[6],8.7 g
same,ALP,[6],863 IU/L
same,ALT,[6],31 IU/L
same,AST,[6],69 IU/L
same,CRE,[6],0.4 mg/dL
same,DBIL,[6],0.082 mg/dL
same,GLC,[6],190.8 mg/dL
same,IP,[6],9.5 mg/dL
same,K,[6],3.8 meq/L
same,LDH,[6],196.2 IU/L
same,Na,[6],141.8 meq/L
same,PL,[6],149.8 mg/dL
same,RALB,[6],3.4 g/dL
same,TBIL,[6],0.1 mg/dL
same,TC,[6],91 mg/dL
same,TP,[6],5.7 g/dL
same,gamma-GTP,[6],1 IU/L
same,TERMINAL_BW,[7],212.4 g
same,APTT,[7],18.1 s
same,Bas,[7],0.2%
same,Eos,[7],0.6%
same,Fbg,[7],228.8 mg/dL
same,Hb,[7],13.6 g/dL
same,Ht,[7],38.4%
same,Lym,[7],79.6%
same,MCH,[7],21.5 pg
same,MCHC,[7],35.4%
same,MCV,[7],60.9 fL
same,Mono,[7],2.2%
same,Neu,[7],16.4%
same,PT,[7],12.4 s
same,Plat,[7],132.4 x10_4/uL
same,RBC,[7],629.8 x10_4/ul
same,Ret,[7],7.3%
same,WBC,[7],61.3 x10_2/uL
same,KIDNEY_L,[7],1 g
same,KIDNEY_R,[7],0.9 g
same,KIDNEY_TOTAL,[7],1.9 g
same,LIVER,[7],8.8 g
same,ALP,[7],1127.2 IU/L
same,ALT,[7],25.6 IU/L
same,AST,[7],65.2 IU/L
same,CRE,[7],0.4 mg/dL
same,DBIL,[7],0.076 mg/dL
same,GLC,[7],201.4 mg/dL
same,IP,[7],10 mg/dL
same,K,[7],3.8 meq/L
same,LDH,[7],200.8 IU/L
same,Na,[7],142.4 meq/L
same,PL,[7],141.4 mg/dL
same,RALB,[7],3.6 g/dL
same,TBIL,[7],0.1 mg/dL
same,TC,[7],74.8 mg/dL
same,TP,[7],5.6 g/dL
same,gamma-GTP,[7],1 IU/L
same,TERMINAL_BW,[8],208.4 g
same,APTT,[8],22.1 s
same,Bas,[8],0.4%
same,Eos,[8],1.2%
same,Fbg,[8],209 mg/dL
same,Hb,[8],13.9 g/dL
same,Ht,[8],38.9%
same,Lym,[8],80.8%
same,MCH,[8],21.4 pg
same,MCHC,[8],35.7%
same,MCV,[8],59.9 fL
same,Mono,[8],1.8%
same,Neu,[8],15%
same,PT,[8],13.1 s
same,Plat,[8],129.7 x10_4/uL
same,RBC,[8],650 x10_4/ul
same,Ret,[8],5.9%
same,WBC,[8],63.6 x10_2/uL
same,KIDNEY_L,[8],1 g
same,KIDNEY_R,[8],0.9 g
same,KIDNEY_TOTAL,[8],1.9 g
same,LIVER,[8],9.6 g
same,ALP,[8],1071.8 IU/L
same,ALT,[8],27.8 IU/L
same,AST,[8],64.6 IU/L
same,CRE,[8],0.5 mg/dL
same,DBIL,[8],0.084 mg/dL
same,GLC,[8],196.4 mg/dL
same,IP,[8],8.8 mg/dL
same,K,[8],3.8 meq/L
same,LDH,[8],141 IU/L
same,Na,[8],142 meq/L
same,PL,[8],143 mg/dL
same,RALB,[8],3.6 g/dL
same,TBIL,[8],0.1 mg/dL
same,TC,[8],86 mg/dL
same,TP,[8],5.7 g/dL
same,gamma-GTP,[8],1.2 IU/L
